In patent US20120060243A1, “Herbicide-Resistant AHAS-Mutants and Methods of Use” (priority 2008, published 2012):
Where two headings read alike, the source gives them in different places.

Columns and labels:
Assay type in all cases: in vivo, Brassica napus
[1] = system: PM1PM2/BnCL131A1, S653N (He), W574L (He)/A122T-S653N (He); conditions: for Mean Percent Crop Phytotoxicity (% Crop Injury): field, 2-4 leaf stage; for Expected Additive % Herbicide Tolerance: sum of BnCL131A1 (He) + PM2 (AHASL1A-PM2) + PM1 (AHASL1C-PM1)
Excerpt: (§1) Hand-crossed hybrids were produced in the greenhouse between two IMI-tolerant spring Brassica napus parental lines: “BnCL131A1” (homozygous for the A genome IMI-tolerant mutation AHASL1A-A122(At)T-S653(At)N) and “PM1PM2” (homozygous for the A genome AHAS-inhibitor tolerant mutation AHASL1A-W574(At)L (PM2) plus the C genome AHAS-inhibitor tolerant mutation AHASL1C-S653(At)N(PM1)). The resulting heterozygous hand-crossed hybrid line, “PM1PM2/BnCL131A 1” (heterozygous for the stacked mutations: AHASL1A-A122(At)T-S653(At)N, AHASL1A-W574(At)L (PM2), AHASL1C-S653(At)N(PM1)) was field tested together with lines each containing only one AHAS-inhibitor tolerant mutation (homozygous or heterozygous) and several spring Brassica napus checks.
(§2) The three repetition trial was conducted in Simcoe, N. Dak., and used a randomized split block design. The trial was designed to measure the percent phytotoxicity (% crop injury) of the different entries under 5 different imidazolinone herbicide treatment rates. Plants were sprayed at the 2-4 leaf stage at a volume of 100 liters/ha. The imidazolinone herbicide rates used were as follows (Imazamox=BEYOND™ 120 g/I LC (BAS 72001H); NIS=INDUCE™ 90 (90% non-ionic surfactant; Helena Chemical Co., Collierville, Tenn.):
(§3) Crop Injury Ratings were determined in the field by assessing each plot in the trial for the level of phytotoxicity (percent crop injury) on a scale from 0-100% at 18 days after treatment. Mean values for each entry across the three replications along with their statistical significance (ANOVA) are presented in Table 6 (Ho=homozygous; He=heterozygous). Each value presented in Table 6 is the mean of three replications.
(§4) The percent phytotoxicity (% crop injury) ratings were transposed into Herbicide Tolerance ratings by subtracting the percent crop injury rating (Table 6) for each line from 100% to obtain the percent herbicide tolerance (Table 7) (Ho=homozygous; He=heterozygous).

[2] = system: AHASL1A-A122T, A122T (Ho); conditions: 18 Days After Treatment, line AHASL1A-A122T; for Mean Percent Crop Phytotoxicity (% Crop Injury): field, 2-4 leaf stage
Excerpt: as §1, §2, §3, §4

[3] = system: PM2 (AHASL1A-PM2), W574L (Ho); conditions: 18 Days After Treatment, line PM2 (AHASL1A-PM2); for Mean Percent Crop Phytotoxicity (% Crop Injury): field, 2-4 leaf stage
Excerpt: as §1, §2, §3, §4

[4] = system: AHASL1A-S653N, S653N (Ho); conditions: 18 Days After Treatment, line AHASL1A-S653N; for Mean Percent Crop Phytotoxicity (% Crop Injury): field, 2-4 leaf stage
Excerpt: as §1, §2, §3, §4

[5] = system: BN-02 (wild type); experiment: Herbicide injury rating, Table 4; conditions: 3-4 leaf stage, 2 weeks post spray, line BN-02
Experimental: (§5) Herbicide Injury Rating for Brassica napus Plants Treated with Imazamox. Plants for lines BN02 (wild type), two lines of BnCL131A1 (AHAS III A122T S653N double mutant; BnCL131A1.0 and BnCL131A1.18), PM1/PM2 (commercial two gene check: AHAS I S653N & AHAS III W574L) were grown […] Merge. Herbicide injury was evaluated 2 weeks post spray on 12 plants per line. The results are presented as mean injury±one standard error of the mean in Table 4 below. The results cover one planting and spray for all lines and the values for ±two standard error of the mean are also provided.

[6] = system: PM1/PM2 (commercial two gene check: AHAS I S653N & AHAS III W574L); experiment: Herbicide injury rating, Table 4; conditions: 3-4 leaf stage, 2 weeks post spray, line PM1/PM2
Experimental: as §5

[7] = system: BnCL131A1.0 (AHAS III A122T S653N double mutant); experiment: Herbicide injury rating, Table 4; conditions: 3-4 leaf stage, 2 weeks post spray, line BnCL131A1.0
Experimental: as §5

[8] = system: BnCL131A1.18 (AHAS III A122T S653N double mutant); experiment: Herbicide injury rating, Table 4; conditions: 3-4 leaf stage, 2 weeks post spray, line BnCL131A1.18
Experimental: as §5

[9] = mean over 0, 35, 70, 140, 210 g ai/ha (N 15)

COCc1cnc(C2=NC(C)(C(C)C)C(=O)N2)c(C(=O)O)c1 (stereo not drawn) [imazamox]
Mean Percent Crop Phytotoxicity (% Crop Injury) ([1]; 35 g ai/ha + 0.25% (v/v) NIS, 18 Days After Treatment, line PM1PM2/BnCL131A1): 8.33% | Mean Percent Herbicide Tolerance (100% minus percent crop injury) ([1]; 35 g ai/ha, 18 Days After Treatment, line PM1PM2/BnCL131A1): 91.7% | Mean Percent Crop Phytotoxicity (% Crop Injury) ([1]; 70 g ai/ha + 0.25% (v/v) NIS, 18 Days After Treatment, line PM1PM2/BnCL131A1): 15% | Mean Percent Herbicide Tolerance (100% minus percent crop injury) ([1]; 70 g ai/ha, 18 Days After Treatment, line PM1PM2/BnCL131A1): 85.0% | Mean Percent Crop Phytotoxicity (% Crop Injury) ([1]; 140 g ai/ha + 0.25% (v/v) NIS, 18 Days After Treatment, line PM1PM2/BnCL131A1): 21.67% | Mean Percent Herbicide Tolerance (100% minus percent crop injury) ([1]; 140 g ai/ha, 18 Days After Treatment, line PM1PM2/BnCL131A1): 78.3% | Expected Additive % Herbicide Tolerance ([1]; 140 g ai/ha): 45% | Expected Additive % Herbicide Tolerance ([1]; 140 g ai/ha, listed as Beyond): 45.0% | Mean Percent Crop Phytotoxicity (% Crop Injury) ([1]; 210 g ai/ha + 0.25% (v/v) NIS, 18 Days After Treatment, line PM1PM2/BnCL131A1): 15% | Mean Percent Herbicide Tolerance (100% minus percent crop injury) ([1]; 210 g ai/ha, 18 Days After Treatment, line PM1PM2/BnCL131A1): 85% | Mean Percent Herbicide Tolerance (100% minus percent crop injury) ([1]; 210 g ai/ha, 18 Days After Treatment, line PM1PM2/BnCL131A1, listed as Beyond): 85.0% | Expected Additive % Herbicide Tolerance ([1]; 210 g ai/ha): 55% | Expected Additive % Herbicide Tolerance ([1]; 210 g ai/ha, listed as Beyond): 55.0% | Mean Percent Crop Phytotoxicity (% Crop Injury), Mean over rates ([1]; mean over 0, 35, 70, 140, 210 g ai/ha (N 15), 18 Days After Treatment, line PM1PM2/BnCL131A1): 12% | Mean Percent Crop Phytotoxicity (% Crop Injury) ([2]; 35 g ai/ha + 0.25% (v/v) NIS): 70% | Mean Percent Herbicide Tolerance (100% minus percent crop injury) ([2]; 35 g ai/ha): 30.0% | Mean Percent Crop Phytotoxicity (% Crop Injury) ([2]; 70 g ai/ha + 0.25% (v/v) NIS): 78.33% | Mean Percent Herbicide Tolerance (100% minus percent crop injury) ([2]; 70 g ai/ha): 21.7% | Mean Percent Crop Phytotoxicity (% Crop Injury) ([2]; 210 g ai/ha + 0.25% (v/v) NIS): 70% | Mean Percent Herbicide Tolerance (100% minus percent crop injury) ([2]; 210 g ai/ha): 30.0% | Mean Percent Crop Phytotoxicity (% Crop Injury), Mean over rates [2, 9]: 57% | Mean Percent Crop Phytotoxicity (% Crop Injury) ([3]; 35 g ai/ha + 0.25% (v/v) NIS): 36.67% | Mean Percent Herbicide Tolerance (100% minus percent crop injury) ([3]; 35 g ai/ha): 63.3% | Mean Percent Crop Phytotoxicity (% Crop Injury) ([3]; 70 g ai/ha + 0.25% (v/v) NIS): 46.67% | Mean Percent Herbicide Tolerance (100% minus percent crop injury) ([3]; 70 g ai/ha): 53.3% | Mean Percent Crop Phytotoxicity (% Crop Injury) ([3]; 140 g ai/ha + 0.25% (v/v) NIS): 83.33% | Mean Percent Herbicide Tolerance (100% minus percent crop injury) ([3]; 140 g ai/ha): 16.7% | Mean Percent Crop Phytotoxicity (% Crop Injury) ([3]; 210 g ai/ha + 0.25% (v/v) NIS): 80% | Mean Percent Herbicide Tolerance (100% minus percent crop injury) ([3]; 210 g ai/ha): 20.0% | Mean Percent Crop Phytotoxicity (% Crop Injury), Mean over rates [3, 9]: 49.33% | Mean Percent Crop Phytotoxicity (% Crop Injury) ([4]; 70 g ai/ha + 0.25% (v/v) NIS): 78.33% | Mean Percent Herbicide Tolerance (100% minus percent crop injury) ([4]; 70 g ai/ha): 21.7% | Mean Percent Crop Phytotoxicity (% Crop Injury) ([4]; 210 g ai/ha + 0.25% (v/v) NIS): 90% | Mean Percent Herbicide Tolerance (100% minus percent crop injury) ([4]; 210 g ai/ha): 10.0% | Mean Percent Crop Phytotoxicity (% Crop Injury), Mean over rates [4, 9]: 64.33% | Herbicide injury rating, mean injury ± standard error of the mean ([5]; 35 g ai/ha + 0.5% v/v Merge): 8.92 ± 0.08 | Herbicide injury rating, mean injury ± standard error of the mean ([5]; 70 g ai/ha + 0.5% v/v Merge): 9.00 ± 0.00 | Herbicide injury rating, mean injury ± standard error of the mean ([5]; 210 g ai/ha + 0.5% v/v Merge): 9.00 ± 0.00 | Herbicide injury rating, mean injury ± standard error of the mean ([5]; 420 g ai/ha): 9.00 ± 0.00 | Herbicide injury rating, mean injury ± standard error of the mean ([6]; 35 g ai/ha + 0.5% v/v Merge): 0.50 ± 0.19 | Herbicide injury rating, mean injury ± standard error of the mean ([6]; 70 g ai/ha + 0.5% v/v Merge): 1.83 ± 0.21 | Herbicide injury rating, mean injury ± standard error of the mean ([6]; 210 g ai/ha + 0.5% v/v Merge): 2.00 ± 0.23 | Herbicide injury rating, mean injury ± standard error of the mean ([6]; 420 g ai/ha): 3.83 ± 0.21 | Herbicide injury rating, mean injury ± standard error of the mean ([7]; 35 g ai/ha + 0.5% v/v Merge): 0.90 ± 0.28 | Herbicide injury rating, mean injury ± standard error of the mean ([7]; 70 g ai/ha + 0.5% v/v Merge): 1.20 ± 0.29 | Herbicide injury rating, mean injury ± standard error of the mean ([7]; 210 g ai/ha + 0.5% v/v Merge): 1.45 ± 0.28 | Herbicide injury rating, mean injury ± standard error of the mean ([7]; 420 g ai/ha): 3.20 ± 0.20 | Herbicide injury rating, mean injury ± standard error of the mean ([8]; 35 g ai/ha + 0.5% v/v Merge): 0.64 ± 0.20 | Herbicide injury rating, mean injury ± standard error of the mean ([8]; 70 g ai/ha + 0.5% v/v Merge): 0.91 ± 0.21 | Herbicide injury rating, mean injury ± standard error of the mean ([8]; 210 g ai/ha + 0.5% v/v Merge): 1.89 ± 0.20 | Herbicide injury rating, mean injury ± standard error of the mean ([8]; 420 g ai/ha): 2.27 ± 0.14
